Measured values taken from ChEMBL document CHEMBL5131481, “Topoisomerase IIα inhibitory and antiproliferative activity of dihydroxylated 2,6-diphenyl-4-fluorophenylpyridines: Design, synthesis, and structure-activity relationships” (Bioorg Med Chem Lett, 2022).

Legend:
[1] = target: DNA topoisomerase 2-alpha (Homo sapiens) (UniProt P11388); experiment: Inhibition of topoisomerase 2alpha (unknown origin) assessed as relaxation of supercoiled plasmid pBR322 DNA at 20 uM relative to control
HeLa = experiment: Antiproliferative activity against human HeLa cells assessed as inhibition of cell proliferation; assay type: functional, cell-based
DU-145 = experiment: Antiproliferative activity against human DU-145 cells assessed as inhibition of cell proliferation; assay type: functional, cell-based
HCT-15 = experiment: Antiproliferative activity against human HCT-15 cells assessed as inhibition of cell proliferation; assay type: functional, cell-based
T47D = experiment: Antiproliferative activity against human T47D cells assessed as inhibition of cell proliferation; assay type: functional, cell-based
[2] = target: DNA topoisomerase 2-alpha (Homo sapiens) (UniProt P11388); experiment: Inhibition of topoisomerase 2alpha (unknown origin) assessed as relaxation of supercoiled plasmid pBR322 DNA at 100 uM relative to control

Chain of DNA topoisomerase 2-alpha (Homo sapiens) (P11388 whole entry): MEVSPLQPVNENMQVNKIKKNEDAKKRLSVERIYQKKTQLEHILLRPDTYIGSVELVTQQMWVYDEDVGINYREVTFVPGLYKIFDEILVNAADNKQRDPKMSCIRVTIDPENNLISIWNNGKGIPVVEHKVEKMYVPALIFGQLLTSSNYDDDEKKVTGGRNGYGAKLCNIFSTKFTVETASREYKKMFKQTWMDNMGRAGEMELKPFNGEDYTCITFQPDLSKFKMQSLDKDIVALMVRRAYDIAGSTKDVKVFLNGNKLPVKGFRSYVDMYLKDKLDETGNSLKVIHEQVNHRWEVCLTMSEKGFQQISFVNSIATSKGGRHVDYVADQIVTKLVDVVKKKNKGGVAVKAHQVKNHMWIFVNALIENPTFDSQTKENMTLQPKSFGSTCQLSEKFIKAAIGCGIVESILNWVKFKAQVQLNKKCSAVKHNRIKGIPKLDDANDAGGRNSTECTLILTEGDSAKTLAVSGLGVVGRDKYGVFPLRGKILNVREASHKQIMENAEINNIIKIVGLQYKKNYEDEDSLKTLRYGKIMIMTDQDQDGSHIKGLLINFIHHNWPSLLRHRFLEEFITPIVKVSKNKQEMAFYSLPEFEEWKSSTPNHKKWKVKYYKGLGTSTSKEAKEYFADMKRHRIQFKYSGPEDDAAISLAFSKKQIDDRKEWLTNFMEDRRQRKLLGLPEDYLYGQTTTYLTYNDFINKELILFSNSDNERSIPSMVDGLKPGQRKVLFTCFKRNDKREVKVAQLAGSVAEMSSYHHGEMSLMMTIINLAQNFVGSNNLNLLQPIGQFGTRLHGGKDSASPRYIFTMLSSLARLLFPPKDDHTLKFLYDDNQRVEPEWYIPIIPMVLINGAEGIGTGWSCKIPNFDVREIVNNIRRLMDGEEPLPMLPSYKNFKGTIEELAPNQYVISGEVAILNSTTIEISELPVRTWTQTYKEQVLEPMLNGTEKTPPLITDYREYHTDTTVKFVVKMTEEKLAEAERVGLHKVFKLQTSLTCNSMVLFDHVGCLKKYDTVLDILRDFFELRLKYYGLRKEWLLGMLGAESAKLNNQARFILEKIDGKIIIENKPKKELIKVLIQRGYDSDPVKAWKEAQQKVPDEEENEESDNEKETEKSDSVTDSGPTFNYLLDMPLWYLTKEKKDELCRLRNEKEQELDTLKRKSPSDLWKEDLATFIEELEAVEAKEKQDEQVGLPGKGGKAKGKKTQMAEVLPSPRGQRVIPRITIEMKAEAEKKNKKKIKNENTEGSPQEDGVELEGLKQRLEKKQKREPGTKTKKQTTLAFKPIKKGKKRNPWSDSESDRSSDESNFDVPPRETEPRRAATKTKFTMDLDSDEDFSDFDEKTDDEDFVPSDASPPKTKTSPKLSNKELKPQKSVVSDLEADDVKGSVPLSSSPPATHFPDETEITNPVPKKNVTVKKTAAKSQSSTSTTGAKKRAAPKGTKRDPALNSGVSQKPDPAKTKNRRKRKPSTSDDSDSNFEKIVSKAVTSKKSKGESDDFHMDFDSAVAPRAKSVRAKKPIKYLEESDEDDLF

## Oc1cccc(-c2cc(-c3ccccc3F)cc(-c3cccc(O)c3)n2)c1
[1]
  inhibition: 10.8%
HeLa
  IC50: 16 µM
DU-145
  IC50: 11.2 µM
HCT-15
  IC50: 5.3 µM
T47D
  IC50: 4.37 µM
[2]
  inhibition: 31.1%

## Oc1ccc(-c2cc(-c3ccccc3F)cc(-c3cccc(O)c3)n2)cc1
[1]
  inhibition: 42.1%
HeLa
  IC50: 14.3 µM
DU-145
  IC50: 3.16 µM
HCT-15
  IC50: 5.63 µM
T47D
  IC50: 6.37 µM
[2]
  inhibition: 76.6%

## Oc1cccc(-c2cc(-c3ccccc3OC(F)(F)F)cc(-c3cccc(O)c3)n2)c1
[1]
  inhibition: 6.7%
HeLa
  IC50: 16.7 µM
DU-145
  IC50: 5.42 µM
HCT-15
  IC50: 4.22 µM
T47D
  IC50: 7.95 µM
[2]
  inhibition: 33.4%

## Oc1ccc(-c2cc(-c3ccccc3OC(F)(F)F)cc(-c3ccc(O)cc3)n2)cc1
[1]
  inhibition: 4.3%
HeLa
  IC50: 44.6 µM
DU-145
  IC50: 16 µM
HCT-15
  IC50: 7.76 µM
T47D
  IC50: 9.84 µM
[2]
  inhibition: 42.2%

## Oc1ccc(-c2cc(-c3ccc(C(F)(F)F)cc3)cc(-c3cccc(O)c3)n2)cc1
[1]
  inhibition: 4.1%
HeLa
  IC50: 17.3 µM
DU-145
  IC50: > 50 µM
HCT-15
  IC50: 6.44 µM
T47D
  IC50: 2.87 µM
[2]
  inhibition: 44.1%

## Oc1ccc(-c2cc(-c3ccccc3C(F)(F)F)cc(-c3cccc(O)c3)n2)cc1
[1]
  inhibition: 2.2%
HeLa
  IC50: 17.4 µM
DU-145
  IC50: 2.75 µM
HCT-15
  IC50: 5.74 µM
T47D
  IC50: 3.21 µM
[2]
  inhibition: 61.9%

## Oc1ccc(-c2cc(-c3cccc(F)c3)cc(-c3cccc(O)c3)n2)cc1
[1]
  inhibition: 36.1%
HeLa
  IC50: 14.2 µM
DU-145
  IC50: 2.7 µM
HCT-15
  IC50: 3.07 µM
T47D
  IC50: 3.51 µM
[2]
  inhibition: 73.9%

## Oc1cccc(-c2cc(-c3ccc(F)cc3)cc(-c3cccc(O)c3)n2)c1
[1]
  inhibition: 4.9%
HeLa
  IC50: 1.28 µM
DU-145
  IC50: 7.12 µM
HCT-15
  IC50: 6.31 µM
T47D
  IC50: 6.87 µM
[2]
  inhibition: 36.6%

## Oc1ccc(-c2cc(-c3cccc(OC(F)(F)F)c3)cc(-c3cccc(O)c3)n2)cc1
[1]
  inhibition: 7.4%
HeLa
  IC50: 14.1 µM
DU-145
  IC50: 5.67 µM
HCT-15
  IC50: 1.73 µM
T47D
  IC50: 5.04 µM
[2]
  inhibition: 43.4%
